In ChEMBL document CHEMBL1201862, “PubChem BioAssay data set” (2004):
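Test compounds were applied to cells in 96-well plates for 48 hours at 5 doses. GI50 is the concentration that inhibits growth by half.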 Calls of active or inactive are those of the source. No stated cut-off is given here; in the data, active = GI50 up to about 1.1 µM and inactive = higher.

What was measured:
Assay in all cases: NCI-60 cell line screen, 48 h
CCRF-CEM = system: CCRF-CEM
KM12 = system: KM12
SK-MEL-28 = system: SK-MEL-28
SF-268 = system: SF-268
SR = system: SR
SK-MEL-5 = system: SK-MEL-5
HOP-92 = system: HOP-92
786-0 = system: 786-0
U-251 = system: U-251
A549 = system: A549
SN12C = system: SN12C
UO-31 = system: UO-31
OVCAR-4 = system: OVCAR-4
T47D = system: T47D
SF-295 = system: SF-295
MDA-N = system: MDA-N
MCF7 = system: MCF7
Malme-3M = system: Malme-3M
DU-145 = system: DU-145
OVCAR-8 = system: OVCAR-8
HOP-62 = system: HOP-62
HL-60 = system: HL-60
SK-OV-3 = system: SK-OV-3
MDA-MB-231 = system: MDA-MB-231
RPMI-8226 = system: RPMI-8226
TK-10 = system: TK-10
RXF 393 = system: RXF 393
SK-MEL-2 = system: SK-MEL-2
SNB-19 = system: SNB-19
Hs-578T = system: Hs-578T
K562 = system: K562
A498 = system: A498
MDA-MB-435 = system: MDA-MB-435
UACC-257 = system: UACC-257
M14 = system: M14
NCI/ADR-RES = system: NCI/ADR-RES
HT-29 = system: HT-29
MOLT-4 = system: MOLT-4
SNB-75 = system: SNB-75
CAKI-1 = system: CAKI-1
UACC-62 = system: UACC-62
COLO 205 = system: COLO 205
NCI-H226 = system: NCI-H226
PC-3 = system: PC-3
LOX IMVI = system: LOX IMVI
IGROV-1 = system: IGROV-1
HCT-15 = system: HCT-15
SF-539 = system: SF-539
NCI-H23 = system: NCI-H23
OVCAR-3 = system: OVCAR-3
SW-620 = system: SW-620
BT-549 = system: BT-549
HCT-116 = system: HCT-116
NCI-H460 = system: NCI-H460

## CCOC(=O)C1(C(=O)OCC)Nc2cccnc2N(C)N1
CCRF-CEM
  GI50: 18.5 µM (inactive)
KM12
  GI50: 50.1 µM (inactive)
SK-MEL-28
  GI50: 21.9 µM (inactive)
SF-268
  GI50: 40.6 µM (inactive)
SR
  GI50: 37.1 µM (inactive)
SK-MEL-5
  GI50: 17.4 µM (inactive)
HOP-92
  GI50: 14.7 µM (inactive)
786-0
  GI50: 17.9 µM (inactive)
U-251
  GI50: 20.8 µM (inactive)
A549
  GI50: 96.8 µM (inactive)
SN12C
  GI50: 19.1 µM (inactive)
UO-31
  GI50: 17.4 µM (inactive)
OVCAR-4
  GI50: 17.7 µM (inactive)
T47D
  GI50: 20.1 µM (inactive)
SF-295
  GI50: > 100 µM (inactive)
MDA-N
  GI50: 17.5 µM (inactive)
MCF7
  GI50: 16.3 µM (inactive)
Malme-3M
  GI50: 48.1 µM (inactive)
DU-145
  GI50: 18.7 µM (inactive)
OVCAR-8
  GI50: 18.5 µM (inactive)
HOP-62
  GI50: 35.5 µM (inactive)
HL-60
  GI50: 22.8 µM (inactive)
SK-OV-3
  GI50: > 100 µM (inactive)
MDA-MB-231
  GI50: 20.2 µM (inactive)
RPMI-8226
  GI50: 16.2 µM (inactive)
TK-10
  GI50: 20.9 µM (inactive)
RXF 393
  GI50: 18 µM (inactive)
SK-MEL-2
  GI50: 19.3 µM (inactive)
SNB-19
  GI50: > 100 µM (inactive)
Hs-578T
  GI50: > 100 µM (inactive)
K562
  GI50: 22.8 µM (inactive)
A498
  GI50: 17.5 µM (inactive)
MDA-MB-435
  GI50: 18.9 µM (inactive)
UACC-257
  GI50: 17.6 µM (inactive)
M14
  GI50: 19.3 µM (inactive)
NCI/ADR-RES
  GI50: 20 µM (inactive)
HT-29
  GI50: 14.7 µM (inactive)
MOLT-4
  GI50: 12.4 µM (inactive)
SNB-75
  GI50: > 100 µM (inactive)
CAKI-1
  GI50: 19 µM (inactive)
UACC-62
  GI50: 18 µM (inactive)
COLO 205
  GI50: 11.6 µM (inactive)
NCI-H226
  GI50: 18.4 µM (inactive)
PC-3
  GI50: 22.8 µM (inactive)
LOX IMVI
  GI50: 25.4 µM (inactive)
IGROV-1
  GI50: 22.8 µM (inactive)
HCT-15
  GI50: 18 µM
SF-539
  GI50: 16.6 µM (inactive)
NCI-H23
  GI50: 20.5 µM (inactive)
OVCAR-3
  GI50: 20.5 µM (inactive)
SW-620
  GI50: 11.1 µM (inactive)
BT-549
  GI50: 67.3 µM (inactive)
HCT-116
  GI50: 18.8 µM (inactive)
NCI-H460
  GI50: > 100 µM (inactive)
